Results as given in publication PMC3968014, “Design and Synthesis of a Library of Lead-Like 2,4-Bisheterocyclic Substituted Thiophenes as Selective Dyrk/Clk Inhibitors” (PLoS ONE, 2014).
Values joined by “and” are separate entries in the source; they are usually repeats but may differ in a detail not shown here. Equal values may be shown once. Read-outs that look alike come from different tables or passages of the source.

How the values were obtained:
PIM1 = PIM1 (Homo sapiens, UniProt P11309); test: Selectivity panel PIM1; type: biochemical; settings: for inhibition at 5 µM: 5 µM inhibitor
Dyrk1B = biological target: T1, Dyrk1B (Homo sapiens, UniProt Q9Y463); test: Dyrk1B kinase assay (32P-ATP, Woodtide); type: biochemical; settings: for IC50: 100 µM ATP; for inhibition at 5 µM: read-out: percentage of inhibition Dyrk1B; for Kd: calculated with Cheng-Prussoff equation, KM ATP 59 µM
T1 construct: purchased Life Technologies PV4649 (LOT # 877059G)
T1 sequence (Q9Y463 whole entry): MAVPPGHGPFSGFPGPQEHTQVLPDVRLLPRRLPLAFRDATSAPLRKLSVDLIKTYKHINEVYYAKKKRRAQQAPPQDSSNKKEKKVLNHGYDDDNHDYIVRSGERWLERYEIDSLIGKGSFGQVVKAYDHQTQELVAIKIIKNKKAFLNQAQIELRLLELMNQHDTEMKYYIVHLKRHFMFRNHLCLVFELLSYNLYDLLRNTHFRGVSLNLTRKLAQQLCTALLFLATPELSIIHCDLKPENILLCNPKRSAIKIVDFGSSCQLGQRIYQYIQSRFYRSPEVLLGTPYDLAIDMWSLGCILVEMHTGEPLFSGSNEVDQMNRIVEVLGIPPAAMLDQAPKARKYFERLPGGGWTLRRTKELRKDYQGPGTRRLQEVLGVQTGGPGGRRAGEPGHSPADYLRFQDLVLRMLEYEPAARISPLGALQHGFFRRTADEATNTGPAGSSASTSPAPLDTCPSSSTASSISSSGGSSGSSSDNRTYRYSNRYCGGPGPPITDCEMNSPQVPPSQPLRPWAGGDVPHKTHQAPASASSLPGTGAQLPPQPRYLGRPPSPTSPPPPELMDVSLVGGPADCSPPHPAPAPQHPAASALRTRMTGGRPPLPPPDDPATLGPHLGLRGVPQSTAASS

MLK1 = biological target: T2, MLK1 (Homo sapiens, UniProt P80192); test: Selectivity panel MLK1; type: biochemical; settings: 5 µM inhibitor
T2 construct: purchased Life Technologies (Invitrogen SelectScreen); Dyrk1A, Dyrk2 and CK2α in-house or gifts

Dyrk1A = biological target: T3, Dyrk1A (Homo sapiens, UniProt Q13627); test: Dyrk1A kinase assay (32P-ATP, Woodtide); type: biochemical; settings: for IC50: 100 µM ATP; for inhibition at 5 µM: read-out: percentage of inhibition Dyrk1A
T3 construct: encoding the catalytic domain of human Dyrk1A; thrombin cleavage site (N); made in house; host or cells: Escherichia coli BL21(DE3) with pRARE

MST1 (STK4) = biological target: T4, MST1 (STK4) (Homo sapiens, UniProt Q13043); test: Selectivity panel MST1; type: biochemical; settings: 5 µM inhibitor
T4 construct: purchased Life Technologies (Invitrogen SelectScreen); Dyrk1A, Dyrk2 and CK2α in-house or gifts
T4 sequence (Q13043 1-487): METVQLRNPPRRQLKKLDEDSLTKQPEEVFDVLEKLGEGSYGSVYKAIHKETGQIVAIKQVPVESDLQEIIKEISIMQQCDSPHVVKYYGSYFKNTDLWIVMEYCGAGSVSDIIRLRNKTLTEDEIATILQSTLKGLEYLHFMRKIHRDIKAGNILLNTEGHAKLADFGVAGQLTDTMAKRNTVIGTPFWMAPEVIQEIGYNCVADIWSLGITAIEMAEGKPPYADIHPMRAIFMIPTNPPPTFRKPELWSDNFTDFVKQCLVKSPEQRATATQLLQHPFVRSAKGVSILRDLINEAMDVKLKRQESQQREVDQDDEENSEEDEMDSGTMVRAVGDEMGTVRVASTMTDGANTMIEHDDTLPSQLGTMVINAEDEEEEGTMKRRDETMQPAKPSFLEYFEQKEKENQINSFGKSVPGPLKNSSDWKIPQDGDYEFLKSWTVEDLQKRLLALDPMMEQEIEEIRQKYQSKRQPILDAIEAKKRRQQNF

Clk3 = biological target: T5, Clk3 (Homo sapiens, UniProt P49761); test: Selectivity panel Clk3; type: biochemical; settings: 5 µM inhibitor
T5 construct: purchased Life Technologies (Invitrogen SelectScreen); Dyrk1A, Dyrk2 and CK2α in-house or gifts
T5 sequence (P49761 whole entry): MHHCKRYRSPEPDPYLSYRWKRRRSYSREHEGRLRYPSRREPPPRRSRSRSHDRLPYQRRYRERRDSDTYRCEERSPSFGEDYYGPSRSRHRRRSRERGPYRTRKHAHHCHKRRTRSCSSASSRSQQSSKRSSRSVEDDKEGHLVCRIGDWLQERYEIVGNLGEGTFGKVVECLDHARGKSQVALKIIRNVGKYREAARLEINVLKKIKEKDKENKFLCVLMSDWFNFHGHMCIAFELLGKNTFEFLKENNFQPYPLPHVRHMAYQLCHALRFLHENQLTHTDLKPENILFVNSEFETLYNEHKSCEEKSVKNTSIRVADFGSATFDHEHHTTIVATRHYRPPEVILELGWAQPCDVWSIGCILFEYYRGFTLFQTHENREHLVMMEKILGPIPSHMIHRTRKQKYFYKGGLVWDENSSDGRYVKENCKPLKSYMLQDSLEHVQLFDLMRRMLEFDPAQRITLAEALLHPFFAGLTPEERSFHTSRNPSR

Ck1δ = biological target: T6, Ck1δ (Homo sapiens, UniProt P48730); test: Selectivity panel Ck1δ; type: biochemical; settings: 5 µM inhibitor
T6 construct: purchased Life Technologies (Invitrogen SelectScreen); Dyrk1A, Dyrk2 and CK2α in-house or gifts
T6 sequence (P48730 whole entry): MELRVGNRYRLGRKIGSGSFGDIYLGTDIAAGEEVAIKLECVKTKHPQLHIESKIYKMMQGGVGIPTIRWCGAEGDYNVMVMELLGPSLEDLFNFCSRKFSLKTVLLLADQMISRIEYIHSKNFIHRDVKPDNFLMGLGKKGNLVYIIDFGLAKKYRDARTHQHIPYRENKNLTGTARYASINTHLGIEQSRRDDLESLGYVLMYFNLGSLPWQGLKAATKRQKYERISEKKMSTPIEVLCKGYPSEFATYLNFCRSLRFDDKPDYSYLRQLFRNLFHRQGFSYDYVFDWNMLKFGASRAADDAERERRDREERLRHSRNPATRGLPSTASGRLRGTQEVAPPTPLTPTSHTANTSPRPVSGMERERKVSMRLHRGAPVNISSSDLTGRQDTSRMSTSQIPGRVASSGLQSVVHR

GSK3β = biological target: T7, GSK3β (Homo sapiens, UniProt P49841); test: Selectivity panel GSK3β; type: biochemical; settings: 5 µM inhibitor
T7 construct: purchased Life Technologies (Invitrogen SelectScreen); Dyrk1A, Dyrk2 and CK2α in-house or gifts
T7 sequence (P49841 whole entry): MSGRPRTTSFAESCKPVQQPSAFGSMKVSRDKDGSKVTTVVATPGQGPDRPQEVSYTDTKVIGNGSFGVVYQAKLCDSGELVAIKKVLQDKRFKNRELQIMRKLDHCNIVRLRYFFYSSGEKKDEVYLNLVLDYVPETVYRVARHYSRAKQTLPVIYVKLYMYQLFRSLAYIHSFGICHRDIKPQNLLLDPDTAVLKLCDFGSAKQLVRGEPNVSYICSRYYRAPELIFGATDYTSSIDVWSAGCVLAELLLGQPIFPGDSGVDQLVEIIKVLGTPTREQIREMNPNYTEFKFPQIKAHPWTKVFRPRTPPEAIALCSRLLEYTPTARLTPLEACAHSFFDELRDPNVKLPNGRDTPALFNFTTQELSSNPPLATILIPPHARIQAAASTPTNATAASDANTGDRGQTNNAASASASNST

TrkB = biological target: T8, TrkB (Homo sapiens, UniProt Q16620); test: Selectivity panel TrkB; type: biochemical; settings: 5 µM inhibitor
T8 construct: purchased Life Technologies (Invitrogen SelectScreen); Dyrk1A, Dyrk2 and CK2α in-house or gifts
T8 sequence (Q16620 32-822): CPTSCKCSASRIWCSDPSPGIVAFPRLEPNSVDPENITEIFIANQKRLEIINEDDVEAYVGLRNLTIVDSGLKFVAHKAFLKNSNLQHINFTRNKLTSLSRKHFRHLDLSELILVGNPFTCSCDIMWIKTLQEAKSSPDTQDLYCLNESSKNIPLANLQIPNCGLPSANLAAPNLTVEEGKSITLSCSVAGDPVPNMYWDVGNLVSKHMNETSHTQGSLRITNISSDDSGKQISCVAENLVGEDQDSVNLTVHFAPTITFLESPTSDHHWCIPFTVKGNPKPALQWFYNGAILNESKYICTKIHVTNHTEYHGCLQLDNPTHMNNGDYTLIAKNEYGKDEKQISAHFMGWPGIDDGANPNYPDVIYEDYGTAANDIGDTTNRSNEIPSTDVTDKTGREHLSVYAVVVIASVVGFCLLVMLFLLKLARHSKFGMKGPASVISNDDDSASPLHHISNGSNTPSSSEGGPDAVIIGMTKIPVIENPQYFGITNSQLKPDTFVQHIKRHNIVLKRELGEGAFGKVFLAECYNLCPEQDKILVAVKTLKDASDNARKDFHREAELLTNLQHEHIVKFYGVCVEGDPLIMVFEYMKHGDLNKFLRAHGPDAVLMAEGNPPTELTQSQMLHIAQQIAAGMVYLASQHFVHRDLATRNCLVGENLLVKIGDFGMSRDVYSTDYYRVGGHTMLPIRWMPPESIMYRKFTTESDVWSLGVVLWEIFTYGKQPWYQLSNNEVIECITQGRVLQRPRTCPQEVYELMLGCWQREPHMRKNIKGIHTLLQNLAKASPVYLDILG

EGFR = biological target: T9, EGFR (Homo sapiens, UniProt P00533); test: Selectivity panel EGFR; type: biochemical; settings: 5 µM inhibitor
T9 construct: purchased Life Technologies (Invitrogen SelectScreen); Dyrk1A, Dyrk2 and CK2α in-house or gifts
T9 sequence (P00533 25-1210): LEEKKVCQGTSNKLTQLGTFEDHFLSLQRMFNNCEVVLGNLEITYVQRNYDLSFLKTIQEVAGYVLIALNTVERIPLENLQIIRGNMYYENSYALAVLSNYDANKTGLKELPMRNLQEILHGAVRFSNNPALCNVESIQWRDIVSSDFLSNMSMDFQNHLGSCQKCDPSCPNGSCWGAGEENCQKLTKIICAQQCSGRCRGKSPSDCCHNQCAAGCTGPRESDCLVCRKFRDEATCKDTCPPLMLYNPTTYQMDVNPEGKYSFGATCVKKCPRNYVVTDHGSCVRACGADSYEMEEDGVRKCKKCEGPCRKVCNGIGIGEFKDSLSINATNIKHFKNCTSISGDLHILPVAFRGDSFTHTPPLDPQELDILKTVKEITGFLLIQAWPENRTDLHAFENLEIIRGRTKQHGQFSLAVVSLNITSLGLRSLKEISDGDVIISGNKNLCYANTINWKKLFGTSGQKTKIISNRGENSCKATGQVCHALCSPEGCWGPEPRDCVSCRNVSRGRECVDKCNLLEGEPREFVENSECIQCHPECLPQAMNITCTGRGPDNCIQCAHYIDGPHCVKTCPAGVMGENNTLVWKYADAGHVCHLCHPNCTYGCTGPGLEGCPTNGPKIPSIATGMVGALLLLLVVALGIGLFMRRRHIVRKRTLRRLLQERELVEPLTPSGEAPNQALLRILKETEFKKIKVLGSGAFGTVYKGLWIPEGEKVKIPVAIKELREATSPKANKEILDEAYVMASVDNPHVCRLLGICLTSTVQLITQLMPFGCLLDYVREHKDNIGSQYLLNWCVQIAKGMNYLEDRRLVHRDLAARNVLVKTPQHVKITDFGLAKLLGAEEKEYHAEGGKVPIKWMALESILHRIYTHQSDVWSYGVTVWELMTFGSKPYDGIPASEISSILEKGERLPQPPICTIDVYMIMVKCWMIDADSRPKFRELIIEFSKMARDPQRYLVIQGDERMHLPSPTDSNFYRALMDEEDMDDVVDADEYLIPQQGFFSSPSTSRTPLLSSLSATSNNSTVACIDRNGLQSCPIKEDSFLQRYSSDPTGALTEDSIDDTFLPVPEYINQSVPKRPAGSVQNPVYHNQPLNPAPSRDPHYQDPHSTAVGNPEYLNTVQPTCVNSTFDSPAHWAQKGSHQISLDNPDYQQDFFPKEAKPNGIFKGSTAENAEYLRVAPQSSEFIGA

PRKD2 (PKD2) = biological target: T10, PRKD2 (PKD2) (Homo sapiens, UniProt Q9BZL6); test: Selectivity panel PRKD2; type: biochemical; settings: 5 µM inhibitor
T10 construct: purchased Life Technologies (Invitrogen SelectScreen); Dyrk1A, Dyrk2 and CK2α in-house or gifts
T10 sequence (Q9BZL6 1-878): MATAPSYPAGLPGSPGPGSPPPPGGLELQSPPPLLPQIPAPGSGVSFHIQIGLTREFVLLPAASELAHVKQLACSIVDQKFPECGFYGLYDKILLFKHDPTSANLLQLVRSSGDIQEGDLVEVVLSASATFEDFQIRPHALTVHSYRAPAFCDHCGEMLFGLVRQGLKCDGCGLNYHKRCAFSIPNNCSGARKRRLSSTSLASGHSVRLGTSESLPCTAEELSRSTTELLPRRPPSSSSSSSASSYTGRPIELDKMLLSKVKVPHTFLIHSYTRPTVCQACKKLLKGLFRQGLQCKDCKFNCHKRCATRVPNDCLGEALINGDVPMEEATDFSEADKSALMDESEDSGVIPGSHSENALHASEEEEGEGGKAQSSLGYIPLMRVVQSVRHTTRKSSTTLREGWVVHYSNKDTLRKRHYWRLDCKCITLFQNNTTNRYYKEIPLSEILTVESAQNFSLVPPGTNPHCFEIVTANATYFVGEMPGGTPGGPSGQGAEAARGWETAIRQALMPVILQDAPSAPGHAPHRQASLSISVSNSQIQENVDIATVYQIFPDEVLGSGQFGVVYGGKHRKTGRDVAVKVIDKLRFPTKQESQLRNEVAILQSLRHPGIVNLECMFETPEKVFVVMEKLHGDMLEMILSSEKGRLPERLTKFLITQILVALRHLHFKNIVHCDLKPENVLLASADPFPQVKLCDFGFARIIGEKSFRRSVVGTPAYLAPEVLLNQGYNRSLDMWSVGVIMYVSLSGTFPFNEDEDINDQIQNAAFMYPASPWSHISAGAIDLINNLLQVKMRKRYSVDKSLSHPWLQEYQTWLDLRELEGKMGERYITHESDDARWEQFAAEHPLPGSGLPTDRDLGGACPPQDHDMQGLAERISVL

CaMK1 = biological target: T11, CaMK1 (Homo sapiens, UniProt Q14012); test: Selectivity panel CaMK1; type: biochemical; settings: 5 µM inhibitor
T11 construct: purchased Life Technologies (Invitrogen SelectScreen); Dyrk1A, Dyrk2 and CK2α in-house or gifts

Clk1 = Clk1 (Homo sapiens, UniProt P49759); test: Clk1 kinase assay (RS repeat peptide); type: biochemical; settings: for IC50: 100 µM ATP; for inhibition at 5 µM: read-out: % inhibition Clk1
Clk1, sequence (P49759 whole entry): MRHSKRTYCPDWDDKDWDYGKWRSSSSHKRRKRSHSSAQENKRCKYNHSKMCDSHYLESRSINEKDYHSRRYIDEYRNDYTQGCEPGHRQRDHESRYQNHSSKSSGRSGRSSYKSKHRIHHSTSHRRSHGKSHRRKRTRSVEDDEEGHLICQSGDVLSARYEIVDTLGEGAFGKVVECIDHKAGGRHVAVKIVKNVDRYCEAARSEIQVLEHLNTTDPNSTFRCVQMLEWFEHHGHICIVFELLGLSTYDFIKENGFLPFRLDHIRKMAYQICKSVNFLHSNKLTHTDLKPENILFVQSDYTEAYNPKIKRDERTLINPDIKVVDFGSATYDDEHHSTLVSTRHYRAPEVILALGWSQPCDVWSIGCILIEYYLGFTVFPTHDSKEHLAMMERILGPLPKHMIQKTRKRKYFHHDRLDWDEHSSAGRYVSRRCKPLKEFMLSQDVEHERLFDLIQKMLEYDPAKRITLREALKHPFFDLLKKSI

CK2α = biological target: T12, CK2α (Homo sapiens, UniProt P68400); test: CK2α kinase assay (counter screen); type: biochemical; settings: for inhibition at 5 µM: read-out: percentage of inhibition CK2α
T12 construct: purchased Life Technologies (Invitrogen SelectScreen); Dyrk1A, Dyrk2 and CK2α in-house or gifts
T12 sequence (P68400 whole entry): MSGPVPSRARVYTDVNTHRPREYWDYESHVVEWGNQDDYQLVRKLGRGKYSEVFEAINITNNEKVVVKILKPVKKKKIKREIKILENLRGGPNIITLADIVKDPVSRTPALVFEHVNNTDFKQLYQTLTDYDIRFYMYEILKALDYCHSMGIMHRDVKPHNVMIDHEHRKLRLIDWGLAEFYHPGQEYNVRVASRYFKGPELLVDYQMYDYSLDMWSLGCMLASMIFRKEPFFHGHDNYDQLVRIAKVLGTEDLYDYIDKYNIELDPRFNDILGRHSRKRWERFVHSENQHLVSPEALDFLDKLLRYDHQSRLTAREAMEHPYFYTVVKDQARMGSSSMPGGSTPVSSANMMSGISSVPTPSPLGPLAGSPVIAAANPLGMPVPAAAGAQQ
Description: Dyrk1A, Dyrk1B, Dyrk2, CK2α and Clk1 kinase reactions were performed in a reaction buffer containing 50 mM Tris/HCl, pH 7.4, 0.1 mM EGTA, 0.5 mM DTT, 10 mM MgCl2, 100 µM ATP and 0.33 µM [γ-^32ATP] as well as the appropriate substrate peptides, which were 100 µM Woodtide for the Dyrk isoforms ([…]-NH2), 60 µM CK2 substrate peptide ([…]-NH2, from Millipore) for CK2α or RS repeat peptide ([…]) for Clk1. The CK2α protein was a kind gift of M. Montenarh (Homburg). The kinase reactions were performed at 30°C for 15 min and terminated by spotting 5 µL of the reaction mixture onto a P81 phosphocellulose membrane (Whatman). The membrane was washed four times with 0.3% phosphoric acid and one time with acetone and dried. The dry membrane was exposed in a cassette to a Phosphor Screen Imaging Plate (FujiFilm) and the signals detected by scanning of the imaging plate in a Fuji FLA-3000 PhosphoImager. The spots were quantified using AIDA software (Raytest, Version 3.52) to determine the activities of the kinases in the assay reactions. […] IC50 values were calculated by fitting the data with Origin Pro 8.6 (OriginLabs). The calculated IC50 values are representative of at least two independent determinations.

[1] = Metabolic Stability Assay; settings: male, Sprague-Dawley, rat, liver microsomes

IC50 (PIM1) [nM] | inhibition at 5 µM (PIM1) [%] | IC50 (Dyrk1B) | inhibition at 5 µM (Dyrk1B) [%] | inhibition at 5 µM (MLK1) [%] | IC50 (Dyrk1A) | inhibition at 5 µM (Dyrk1A) [%] | inhibition at 5 µM (MST1 (STK4)) [%] | inhibition at 5 µM (Clk3) [%] | inhibition at 5 µM (Ck1δ) [%] | inhibition at 5 µM (GSK3β) [%] | inhibition at 5 µM (TrkB) [%] | inhibition at 5 µM (EGFR) [%] | inhibition at 5 µM (PRKD2 (PKD2)) [%] | inhibition at 5 µM (CaMK1) [%] | IC50 (Clk1) [nM] | inhibition at 5 µM (Clk1; at 5 µM) [%] | inhibition at 5 µM (CK2α) [%] | Compound | CLhep predicted at 0.5 µM [1] [mL/min/kg] | half-life at 0.5 µM [1] [min] | further results
~5000 | 51 | 1000 nM | 83 | 0 | 800 nM and 810 nM | 84 | 0 | 5 | 0 | 10 | 23 | 0 | 0 | 12 | 420 | 88 | 0 | c1cncc(-c2csc(-c3cnco3)c2)c1 [Compound 33, 3-[5-(1,3-oxazol-5-yl)thiophen-3-yl]pyridine] |  |  | 
 | 14 | 1800 nM | 70 | 3 | 900 nM and 880 nM | 85 | 2 | 5 | 0 | 14 | 22 | 4 | 0 | 0 | 610 | 86 | 0 | c1cncc(-c2csc(-c3cncnc3)c2)c1 [Compound 41, 5-[4-(pyridin-3-yl)thiophen-2-yl]pyrimidine] |  |  | 
~5000 | 52 | 400 nM and 410 nM | 100 | 16 |  |  | -10 | 17 | -1 | 17 | -5 | 5 | -8 | 17 | 160 | 92 | 9.5 | Cn1cc(-c2csc(-c3cccnc3)c2)cn1 [Compound 30, 3-[4-(1-methyl-1H-pyrazol-4-yl)thiophen-2-yl]pyridine] | 34 | 53 | Kd (Dyrk1B): 148 nM; percentage of inhibition CK2α (CK2α; at 5 µM): 10%

Compound | IC50 (PIM1) [nM] | inhibition at 5 µM (PIM1) [%] | IC50 (Dyrk1B) | inhibition at 5 µM (Dyrk1B) [%] | inhibition at 5 µM (MLK1) [%] | IC50 (Dyrk1A) | inhibition at 5 µM (Dyrk1A) [%] | inhibition at 5 µM (MST1 (STK4)) [%] | inhibition at 5 µM (Clk3) [%] | inhibition at 5 µM (Ck1δ) [%] | inhibition at 5 µM (GSK3β) [%] | inhibition at 5 µM (TrkB) [%] | inhibition at 5 µM (EGFR) [%] | inhibition at 5 µM (PRKD2 (PKD2)) [%] | inhibition at 5 µM (CaMK1) [%] | IC50 (Clk1) [nM] | inhibition at 5 µM (Clk1; at 5 µM) [%] | inhibition at 5 µM (CK2α) [%] | CLhep predicted at 0.5 µM [1] [mL/min/kg] | half-life at 0.5 µM [1] [min] | further results
c1cncc(-c2csc(-c3cncs3)c2)c1 [Compound 48, 3-[5-(1,3-thiazol-5-yl)thiophen-3-yl]pyridine] | ~5000 | 51 | 70 nM | 100 | 17 | 100 nM | 97 | 9 | 31 | 1 | 25 | 0 | 15 | 0 | 5 | 110 | 94 | 0 | 47 | 31 | Kd (Dyrk1B): 26 nM; Kd (Dyrk1A; calculated with Cheng-Prussoff equation, KM ATP 64 µM): 39 nM
c1cncc(-c2cc(-c3cncs3)cs2)c1 [Compound 29, 3-[4-(1,3-thiazol-5-yl)thiophen-2-yl]pyridine] |  | 22 |  |  | 15 |  |  | 0 | 12 | 0 | 0 | 24 | 0 | 0 | 8 |  |  | 0 | 49 | 27 | inhibition at 5 µM (Clk1): 96%
